“Also recorded” adds a separate entry of the source.
System: dSPN glutamatergic synapses
Assay: Spike-timing-dependent LTD induction (post-pre pairing) in dSPNs, ex vivo corticostriatal slices, perforated-patch or whole-cell recording
Format: cell-based, mice
Excerpt: Male C57Bl/6 and FVB mice expressing tdTomato or eGFP under control of either the Drd1 or Drd2 receptor regulatory elements were used. All the mice used for the study were hemizygous for these transgenes. For some experiments, D1-tdTomato BAC mice were crossed with a transgenic line expressing Cre recombinase under control of the ChAT promoter. All mice were 8-10 weeks of age before stereotaxic surgery. Animal use procedures were reviewed and approved by the Northwestern Institutional Animal Care and Use Committee.
Slices were then transferred to a holding chamber containing aCSF. After an incubation period at 34° C. for 30 min, the slices were then kept in the holding chamber at the room temperature for another 30 min before use.
Individual slices were transferred to a recording chamber and were continuously perfused (2-3 ml min^−1) with aCSF for the duration of the experiment. Experiments were performed in the dorsolateral striatum at elevated temperature (30-31° C.).
All the recordings were made using a MultiClamp 700 A amplifier, and signals were filtered at 2 kHz and digitized at 10 kHz. Data were excluded when the series resistance changed >20% over the time course of the experiment. […] Capacitance current was continuously monitored during perforation by applying a 5-10 mV pulse from a holding potential of −70 mV. The amplifier bridge circuit was adjusted to compensate for series resistance and continuously monitored during recordings. Electrode capacitance was also compensated. Data were excluded when the input resistance (Ri) changed >20% over the time course of the experiment.
Data analysis was conducted with Igor Pro 6 (Wavemetrics, Lake Oswego, Oreg.) and Clampfit 9 (Molecular Devices). EPSP amplitude was calculated from 50-60 sweeps immediately before the start of induction and 20-30 min after the end of induction. The change in EPSP amplitude was calculated by averaging EPSP values after the induction and normalized to the average baseline EPSP amplitude. Compiled data were expressed as mean±s.e.m. Statistical tests were performed using Excel (Microsoft, Redmond, Wash.) and SigmaStat (Systat, San Jose, Calif.). Non-parametric Mann-Whitney or Wilcoxon tests were used to assess the experiment results, using a probability threshold of 0.05.
To determine if M4Rs were modulating synaptic plasticity, a spike-timing-dependent plasticity (STDP) paradigm was used. […] Once identified, neurons were monitored and controlled with perforated-patch recording to preserve intracellular signaling mechanisms and to allow stable, long-term monitoring of synaptic strength (FIG. 1A).
Synaptic plasticity was induced by pairing local stimulation of glutamatergic afferent fibers with postsynaptic spikes evoked by short bursts of intracellular current injection that were repeated at 5 Hz (FIGS. 1B, 4A).

Cc1cc(C)c2c(N)c(C(=O)NCc3ccc(Cl)cc3)sc2n1 [VU10010]
LTD induction in dSPNs (EPSP amplitude) (VU10010 5 μM, no D1R antagonist, 20 repetitions of pairing): did not lead to LTD induction
LTD induction in dSPNs (EPSP amplitude) (VU10010 5 μM, no D1R antagonist, 60 repetitions of pairing): LTD induction was robust; also recorded: LTD was induced
LTD induction in dSPNs (EPSP amplitude) (physostigmine 10 μM co-applied with VU10010 5 μM, 20 repetitions): LTD was induced

— US9987242B2, “Treatment of Levodopa-induced Dyskinesias” (NORTHWESTERN UNIVERSITY, priority 2015, dated 2018)
